According to patent publication US20210230159A1, “4H-PYRIDO[1,2-A]PYRIMIDIN-4-ONE COMPOUNDS” (Prana Biotechnology Limited, priority 2014, published 2021):

Experiment: Hydrogen peroxide (H2O2) inhibition assay (fluorescence, DCF/horseradish peroxidase)
Format: biochemical
Conditions: for IC50: HCl salt tested where HCl salt MW is given; for Fe-ASC % (cf. 0.4 uM Fe/Asc; cf. CQ, CQ = 100%) / Cu % ASC (cf. CQ = 100%) / Zn % ASC (cf. CQ = 100%): ascorbic acid as reducing substrate; for Fe-ASC % (cf. 0.4 uM Fe/Asc; cf. CQ, CQ = 100%) / Fe-DA % (cf. 0.4 uM Fe/DA; cf. CQ, CQ = 100%): test compound 0.4 μM, lower values = greater inhibition of H2O2; for Fe-DA % (cf. 0.4 uM Fe/DA; cf. CQ, CQ = 100%): dopamine as reducing substrate
Procedure: Assay 1. Hydrogen Peroxide Assay
H2O2 is a strong oxidizer and a highly reactive oxygen species that is known to be toxic to surrounding proteins and organelles, inhibiting their function. […] […] H2O2 generated by the system is assessed by measuring the specific fluorescence profile at the excitation and emission wavelengths of 485 and 530 nm respectively, in the presence of test compound. Test compounds were dissolved in DMSO and tested at concentrations of 0.4 μM. Test compounds are ranked according to their capacity to inhibit H2O2 generated by the system where lower values reflect greater ability to inhibit H2O2 production.

Row | Structure (SMILES) | IC50 [µM] | Fe-ASC % (cf. 0.4 uM Fe/Asc; cf. CQ, CQ = 100%) [% ASC] | Cu % ASC (cf. CQ = 100%) | Zn % ASC (cf. CQ = 100%) | Fe-DA % (cf. 0.4 uM Fe/DA; cf. CQ, CQ = 100%) [%]
1 | CCCc1cnc2c(O)c(Cl)ccn2c1=O [Compound 1235] | 0.29 | 86 | – | – | –
2 | CCCCCCCCNC(=O)c1cnc2c(O)cccn2c1=O [Compound 1394] | 0.72 | 96 | – | – | –
3 | COCc1cnc2c(O)cccn2c1=O [Compound 1398, 9-Hydroxy-3-(methoxymethyl)-4H-pyrido[1,2-a]pyrimidin-4-one] | 1.29 | 39 | – | – | –
4 | CCNCc1cc(=O)n2cccc(O)c2n1 [Compound 1400] | 0.33 | 32 | – | – | –
5 | CN(C)Cc1cc(=O)n2cccc(O)c2n1 [Compound 1401] | 0.42 | 55 | – | – | –
6 | CCN1CCN(Cc2cc(=O)n3cccc(O)c3n2)CC1 [Compound 1402] | 1.68 | 36 | – | – | –
7 | O=c1cc(CN2CCCCC2)nc2c(O)cccn12 [Compound 1403] | 1.7 | 49 | – | – | –
8 | CCCCNCc1cc(=O)n2cccc(O)c2n1 [Compound 1405] | 0.29 | 35 | – | – | –
9 | O=c1cc(CNCc2ccc(Cl)cc2)nc2c(O)cccn12 [Compound 1406] | 1.14 | – | – | – | –
10 | CC(C)CNCc1cc(=O)n2cccc(O)c2n1 [Compound 1408, 9-Hydroxy-2-((isobutylamino)methyl)-4H-pyrido[1,2-a]pyrimidin-4-one hydrogen chloride] | 0.43 | – | – | – | –
11 | O=c1cc(CNCc2ccc(F)cc2)nc2c(O)cccn12 [Compound 1409] | 0.14 | – | – | – | –
12 | CCCCCCCCNCc1cc(=O)n2cccc(O)c2n1 [Compound 1410] | 0.43 | 62 | – | – | –
13 | O=c1cc(CNCC2CC2)nc2c(O)cccn12 [Compound 1411] | 0.33 | 36 | – | – | –
14 | O=c1cc(CNCCCN2CCOCC2)nc2c(O)cccn12 [Compound 1412] | 0.13 | 29 | – | – | –
15 | CCCCCNCc1cc(=O)n2cccc(O)c2n1 [Compound 1413] | 0.19 | 42 | – | – | –
16 | O=c1cc(CNCc2ccccn2)nc2c(O)cccn12 [Compound 1414] | < 0.1 | 29 | – | – | –
17 | O=c1cc(CNCCc2ccccn2)nc2c(O)cccn12 [Compound 1415] | < 0.1 | 34 | – | – | –
18 | O=c1cc(CNCCN2CCCC2)nc2c(O)cccn12 [Compound 1417] | 0.13 | 29 | – | – | –
19 | O=c1cc(CNCCN2CCOCC2)nc2c(O)cccn12 [Compound 1418] | 0.24 | 30 | – | – | –
20 | CCCCCNC(=O)c1cnc2c(O)cccn2c1=O [Compound 1422] | 0.68 | 63 | – | – | –
21 | CCCNC(=O)c1cnc2c(O)cccn2c1=O [Compound 1423] | 0.38 | 45 | – | – | –

Row | Structure (SMILES) | IC50 [µM] | Fe-ASC % (cf. 0.4 uM Fe/Asc; cf. CQ, CQ = 100%) [% ASC] | Cu % ASC (cf. CQ = 100%) | Zn % ASC (cf. CQ = 100%) | Fe-DA % (cf. 0.4 uM Fe/DA; cf. CQ, CQ = 100%) [%]
22 | CN(C)Cc1cnc2c(O)cccn2c1=O [Compound 1424, 3-((Dimethylamino)methyl)-9-hydroxy-4H-pyrido[1,2-a]pyrimidin-4-one hydrogen chloride] | 0.8 | 48 | – | – | –
23 | CC(C)CNC(=O)c1cnc2c(O)cccn2c1=O [Compound 1425] | 0.34 | – | Cu 212% ASC | Zn 69% ASC | 76
24 | O=C(NCCN1CCCC1)c1cnc2c(O)cccn2c1=O [Compound 1426] | 0.32 | – | Cu 212% ASC | Zn 121% ASC | 62
25 | O=C(NCCc1ccccn1)c1cnc2c(O)cccn2c1=O [Compound 1427] | 0.18 | – | Cu 212% ASC | Zn 61% ASC | 74
26 | O=C(NCC1CC1)c1cnc2c(O)cccn2c1=O [Compound 1428] | 0.43 | – | Cu 212% ASC | Zn 74% ASC | 75
27 | O=C(NCc1ccc(Cl)cc1)c1cnc2c(O)cccn2c1=O [Compound 1429] | 0.39 | – | Cu 54% ASC | Zn 57% ASC | 148
28 | O=C(NCc1ccc2c(c1)OCO2)c1cnc2c(O)cccn2c1=O [Compound 1432] | 0.41 | 65 | – | – | 66
29 | CCNC(=O)c1cnc2c(O)cccn2c1=O [Compound 1433] | 0.39 | 152 | – | – | 73
30 | O=c1cc(CNC2CCCC2)nc2c(O)cccn12 [Compound 1435] | 0.23 | 133 | – | – | 90
31 | O=C(NC1CCCC1)c1cnc2c(O)cccn2c1=O [Compound 1436] | 0.21 | 190 | – | – | 101
32 | O=C(NCc1ccc(F)cc1F)c1cnc2c(O)cccn2c1=O [Compound 1437] | 0.47 | 71 | – | – | 71
33 | CCCCCCNCc1cc(=O)n2cccc(O)c2n1 [Compound 1438] | 0.24 | 143 | – | – | 47
34 | CCN(CC)Cc1cc(=O)n2cccc(O)c2n1 [Compound 1439] | > 10 | 156 | – | – | 68
35 | CCCCCCNC(=O)c1cnc2c(O)cccn2c1=O [Compound 1440] | 0.69 | 66 | – | – | 48
36 | O=c1cc(CNCc2ccccc2)nc2c(O)cccn12 [Compound 1442] | 0.24 | 128 | – | – | 58
37 | COc1ccc(CNCc2cc(=O)n3cccc(O)c3n2)cc1 [Compound 1443] | 0.25 | 116 | – | – | 52
38 | O=c1cc(CNc2ccc(F)cc2F)nc2c(O)cccn12 [Compound 1444] | 0.35 | 105 | – | – | 53
39 | CNC(=O)c1cnc2c(O)cccn2c1=O [Compound 1445] | < 0.1 | 176 | – | – | 45
40 | O=C(NCc1cccnc1)c1cnc2c(O)cccn2c1=O [Compound 1446] | 0.34 | 218 | – | – | 56
41 | O=C(NCc1ccccn1)c1cnc2c(O)cccn2c1=O [Compound 1447] | 0.24 | 112 | – | – | 52
42 | O=c1cc(CNc2cccnc2)nc2c(O)cccn12 [Compound 1448] | 0.46 | 137 | – | – | 66
